Test results reported in patent publication US11926628B2 (Gilead Sciences, Inc., priority 2021, dated 2024).
pEC50, pIC50: −log10 of the molar value.

Assays:
human DGKα = human DGKα (Homo sapiens (Human), UniProt P23743); assay: DGKα Biochemical Activity Assay (ADP-Glo); conditions: recombinant DGKα 1 nM, 100 μM ATP, 18:1 DAG/POPS/octylglucoside micelles, 1 hour at 25° C.; geometric mean; read-out: HTBS DGKa 1X ATP KM IC50
In short: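 Recombinant DGKα (1 nM final) was preincubated with compound for 15 min, then reacted for 1 h at 25 °C with 100 μM ATP and octylglucoside micelles of 0.85 mM 18:1 DAG and 6.75 mM POPS in pH 7.2 MOPS with 5 mM MgCl2. ADP formed was read by ADP-Glo luminescence. IC50 came from four-parameter fits normalized to DMSO and 50 μM CU3, and values were geometric means.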

[1] = test system: Jurkat NFκB-luciferase cells; assay: Jurkat NFκB-Luciferase Assay; type: cell-based; conditions: Homo sapiens; Jurkat NFκB-luciferase cells activated with anti-CD3 antibody (OKT3), 2.5 hrs at 37° C.; geometric mean; read-out: DGK NFKb Luciferase EC50
In short: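 Jurkat NFκB-luciferase reporter cells stimulated on plate-bound anti-CD3 (5 ug/ml coating) with compound, 2.5 hrs at 37° C then 30 min at 25° C; luminescence read with One-Glo Ex. Normalized to DMSO (basal) and 1 micromolar compound (maximum) controls; EC50 from four-parameter fit, geometric mean across experiments.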

Sequence of human DGKα (P23743 whole entry): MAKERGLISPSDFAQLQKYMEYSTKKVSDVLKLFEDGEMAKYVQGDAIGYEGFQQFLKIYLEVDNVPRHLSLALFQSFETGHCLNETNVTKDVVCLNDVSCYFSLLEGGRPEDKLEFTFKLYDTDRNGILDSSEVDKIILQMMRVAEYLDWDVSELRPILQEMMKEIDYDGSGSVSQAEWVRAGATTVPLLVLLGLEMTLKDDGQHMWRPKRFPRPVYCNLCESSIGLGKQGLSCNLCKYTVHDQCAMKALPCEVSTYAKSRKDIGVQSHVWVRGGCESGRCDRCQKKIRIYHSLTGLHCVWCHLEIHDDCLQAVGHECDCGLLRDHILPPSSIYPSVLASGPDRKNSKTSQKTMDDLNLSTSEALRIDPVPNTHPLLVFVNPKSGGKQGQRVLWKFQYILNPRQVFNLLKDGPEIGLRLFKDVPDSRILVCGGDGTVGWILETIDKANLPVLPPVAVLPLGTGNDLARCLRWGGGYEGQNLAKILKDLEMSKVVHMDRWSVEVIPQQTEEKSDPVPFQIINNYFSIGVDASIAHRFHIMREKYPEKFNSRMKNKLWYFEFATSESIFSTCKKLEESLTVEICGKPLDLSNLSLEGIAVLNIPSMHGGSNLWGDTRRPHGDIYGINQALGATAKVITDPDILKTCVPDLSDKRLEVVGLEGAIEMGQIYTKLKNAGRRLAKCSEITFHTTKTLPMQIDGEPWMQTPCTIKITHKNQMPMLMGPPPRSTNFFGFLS

Row | Compound | pIC50 (human DGKα) | pEC50 [1]
1 | Fc1cc(C#CC2(C(F)(F)F)CC2)cc(N(CC(F)F)c2nc3nncn3c3cncc(F)c23)c1 [Example 47, N-(2,2-difluoroethyl)-6-fluoro-N-(3-fluoro-5-((1-(trifluoromethyl)cyclopropyl)ethynyl)phenyl)pyrido[4,3-e][1,2,4]triazolo[4,3-a]pyrimidin-5-amine] | 7.30 | 8.37
2 | CN(c1cc(F)cc(C#CC2(C(F)(F)F)CC2)c1)c1nc2nncn2c2cncc(F)c12 [Example 93, 10-fluoro-N-[3-fluoro-5-[2-[1-(trifluoromethyl)cyclopropyl]ethynyl]phenyl]-N-methyl-2,4,5,7,12-pentazatricyclo[7.4.0.02,6]trideca-1(13),3,5,7,9,11-hexaen-8-amine] | 8.14 | 9.12
3 | CCN(c1cc(F)cc(C#CC2(C(F)(F)F)CC2)c1)c1nc2nncn2c2cncc(F)c12 [Example 90, N-ethyl-10-fluoro-N-[3-fluoro-5-[2-[1-(trifluoromethyl)cyclopropyl]ethynyl]phenyl]-2,4,5,7,12-pentazatricyclo[7.4.0.02,6]trideca-1(13),3,5,7,9,11-hexaen-8-amine] | 7.92 | 9.15
4 | Cc1nnc2nc(N3CCOCc4c(C#CC5CC5)cccc43)c3c(F)cncc3n12 [Example 80, 6-(cyclopropylethynyl)-1-(6-fluoro-1-methylpyrido[4,3-e][1,2,4]triazolo[4,3-a]pyrimidin-5-yl)-1,2,3,5-tetrahydrobenzo[e][1,4]oxazepine] | 8.77 | 8.32
5 | Cc1nnc2nc(N3CCCc4c(C#CC5(C)CC5)cccc43)c3ncccc3n12 [Example 22, 3-methyl-8-[5-[2-(1-methylcyclopropyl)ethynyl]-3,4-dihydro-2H-quinolin-1-yl]-2,4,5,7,10-pentazatricyclo[7.4.0.02,6]trideca-1(13),3,5,7,9,11-hexaene] | 7.63 | 8.49
6 | Cc1nnc2nc(N3CCCOc4c(C#CC5(C(F)(F)F)CC5)cccc43)c3c(F)cncc3n12 [Example 72, 5-(6-fluoro-1-methylpyrido[4,3-e][1,2,4]triazolo[4,3-a]pyrimidin-5-yl)-9-((1-(trifluoromethyl)cyclopropyl)ethynyl)-2,3,4,5-tetrahydrobenzo[b][1,4]oxazepine] | 8.13 | 8.52
7 | Cc1nnc2nc(N3CCCc4c(C#CC5(C)CC5)cccc43)c3c(F)cncc3n12 [Example 40, 6-fluoro-1-methyl-5-(5-((1-methylcyclopropyl)ethynyl)-3,4-dihydroquinolin-1(2H)-yl)pyrido[4,3-e][1,2,4]triazolo[4,3-a]pyrimidine] | 8.10 | 8.67
8 | CN(c1cc(F)cc(-c2cnc(C3CC3)cn2)c1)c1nc2nnnn2c2cc(Cl)ccc12 [Example 4, 8-chloro-N-(3-(5-cyclopropylpyrazin-2-yl)-5-fluorophenyl)-N-methyltetrazolo[1,5-a]quinazolin-5-amine] | 7.56 | 9.17
9 | COc1ccc2c(N(C)c3cccc(-c4ccc(C(F)F)cc4)c3)nc3nnc(C)n3c2n1 [Example 133, N-(4′-(difluoromethyl)-[1,1′-biphenyl]-3-yl)-2-methoxy-N,9-dimethylpyrido[3,2-e][1,2,4]triazolo[4,3-a]pyrimidin-5-amine] | 7.28 | 8.70
10 | Cc1nnc2nc(N3CCCc4c(C#CC5(C(F)(F)F)CC5)cccc43)c3ncccc3n12 [Example 23, 3-methyl-8-[5-[2-[1-(trifluoromethyl)cyclopropyl]ethynyl]-3,4-dihydro-2H-quinolin-1-yl]-2,4,5,7,10-pentazatricyclo[7.4.0.02,6]trideca-1(13),3,5,7,9,11-hexaene] | 7.38 | 7.87
11 | CN(c1cc(F)cc(-c2ccc(N3CC4(CC4)CS3(=O)=O)nc2)c1)c1nc2nnnn2c2ccc(F)cc12 [Example 8] | 7.51 | 8.33
12 | CC1(C#Cc2cccc3c2CCCN3c2nc3nncn3c3cncc(F)c23)CC1 [Example 86, 10-fluoro-8-[5-[2-(1-methylcyclopropyl)ethynyl]-3,4-dihydro-2H-quinolin-1-yl]-2,4,5,7,12-pentazatricyclo[7.4.0.02,6]trideca-1(13),3,5,7,9,11-hexaene] | 8.47 | 9.29
13 | CN(c1cccc(C#CC(C)(C)O)c1)c1nc2nccn2c2cc(Cl)ccc12 [Example 1, 4-(3-((8-chloroimidazo[1,2-a]quinazolin-5-yl)(methyl)amino)phenyl)-2-methylbut-3-yn-2-ol] | 6.78 | 7.85
14 | Fc1cncc2c1c(N1CCCc3c(C#CC4(C(F)(F)F)CC4)cccc31)nc1nncn12 [Example 87, 10-fluoro-8-[5-[2-[1-(trifluoromethyl)cyclopropyl]ethynyl]-3,4-dihydro-2H-quinolin-1-yl]-2,4,5,7,12-pentazatricyclo[7.4.0.02,6]trideca-1(13),3,5,7,9,11-hexaene] | 8.07 | 9.08

More lines, in order of rising pIC50 (human DGKα), values ahead:

Row | pIC50 (human DGKα) | pEC50 [1] | Compound
15 | 6.13 | 6.77 | Cc1ccc2c(N(C)c3cccc(Cl)c3)nc3nncn3c2n1 [Example 125, N-(3-chlorophenyl)-N,2-dimethylpyrido[3,2-e][1,2,4]triazolo[4,3-a]pyrimidin-5-amine]
16 | 6.15 | 9.33 | Cc1nnc2nc(N3CCCc4c(C#CC5(C(F)(F)F)CC5)cccc43)c3ccc(C(F)(F)F)nc3n12 [Example 142, 9-methyl-2-(trifluoromethyl)-5-(5-((1-(trifluoromethyl)cyclopropyl)ethynyl)-3,4-dihydroquinolin-1(2H)-yl)pyrido[3,2-e][1,2,4]triazolo[4,3-a]pyrimidine]
17 | 6.45 | 7.32 | Cc1nnc2nc(N3CCCOc4c(Br)cccc43)c3c(F)cncc3n12 [Example 75, 9-bromo-5-(6-fluoro-1-methylpyrido[4,3-e][1,2,4]triazolo[4,3-a]pyrimidin-5-yl)-2,3,4,5-tetrahydrobenzo[b][1,4]oxazepine]
18 | 6.66 | 7.54 | CCN(c1cccc(-c2ccc(C3CC3)nc2)c1)c1nc2nncn2c2cnccc12 [Example 58, N-[3-(6-cyclopropyl-3-pyridyl)phenyl]-N-ethyl-2,4,5,7,12-pentazatricyclo[7.4.0.02,6]trideca-1(13),3,5,7,9,11-hexaen-8-amine]
19 | 6.89 | 8.00 | CN(c1cncc(-c2ccc(C3CC3)cc2)n1)c1nc2nncn2c2cnccc12 [Example 57, N-[6-(4-cyclopropylphenyl)pyrazin-2-yl]-N-methyl-2,4,5,7,12-pentazatricyclo[7.4.0.02,6]trideca-1(13),3,5,7,9,11-hexaen-8-amine]
20 | 7.14 | 8.54 | Fc1cc(C#CC2(C(F)(F)F)CC2)cc(N(CC(F)F)c2nc3nncn3c3cccnc23)c1 [Example 20, N-(2,2-difluoroethyl)-N-(3-fluoro-5-((1-(trifluoromethyl)cyclopropyl)ethynyl)phenyl)pyrido[2,3-e][1,2,4]triazolo[4,3-a]pyrimidin-5-amine]
21 | 7.28 | 8.57 | CC1(C#Cc2cc(F)cc(N(CC(F)F)c3nc4nncn4c4cncc(F)c34)c2)CC1 [Example 45, N-(2,2-difluoroethyl)-6-fluoro-N-(3-fluoro-5-((1-methylcyclopropyl)ethynyl)phenyl)pyrido[4,3-e][1,2,4]triazolo[4,3-a]pyrimidin-5-amine]
22 | 7.41 | 7.27 | Cc1nnc2nc(N(CC(F)F)c3cc(F)cc(C#CC(C)(C)O)c3)c3cc(F)cnc3n12 [Example 99, 4-(3-((2,2-difluoroethyl)(3-fluoro-9-methylpyrido[3,2-e][1,2,4]triazolo[4,3-a]pyrimidin-5-yl)amino)-5-fluorophenyl)-2-methylbut-3-yn-2-ol]
23 | 7.65 | 8.29 | Cc1nnc2nc(N3CCCc4c3ccnc4C#CC3(C(F)(F)F)CC3)c3c(F)cncc3n12 [Example 33, 6-fluoro-1-methyl-5-(5-((1-(trifluoromethyl)cyclopropyl)ethynyl)-3,4-dihydro-1,6-naphthyridin-1(2H)-yl)pyrido[4,3-e][1,2,4]triazolo[4,3-a]pyrimidine]
24 | 7.75 | 8.22 | Cc1nnc2nc(N3CCCc4c(C#CC5(C)CC5)cncc43)c3c(F)cncc3n12 [Example 38, 6-fluoro-1-methyl-5-(5-((1-methylcyclopropyl)ethynyl)-3,4-dihydro-1,7-naphthyridin-1(2H)-yl)pyrido[4,3-e][1,2,4]triazolo[4,3-a]pyrimidine]
25 | 7.94 | 8.63 | Cc1nnc2nc(N3CCOCc4c(C#CC5(C)CC5)cccc43)c3ccc(C(F)(F)F)nc3n12 [Example 140, 1-(9-methyl-2-(trifluoromethyl)pyrido[3,2-e][1,2,4]triazolo[4,3-a]pyrimidin-5-yl)-6-((1-methylcyclopropyl)ethynyl)-1,2,3,5-tetrahydrobenzo[e][1,4]oxazepine]
26 | 8.36 | 8.71 | Cc1nnc2nc(N3CCOCc4c(C#CC5(C(F)(F)F)CC5)cccc43)c3c(F)cncc3n12 [Example 78, 1-(6-fluoro-1-methylpyrido[4,3-e][1,2,4]triazolo[4,3-a]pyrimidin-5-yl)-6-((1-(trifluoromethyl)cyclopropyl)ethynyl)-1,2,3,5-tetrahydrobenzo[e][1,4]oxazepine]
